Measured values published in patent publication US20230263822A1, “MODULATION OF FACTOR 11 EXPRESSION” (Ionis Pharmaceuticals, Inc., priority 2008, published 2023).
Where two headings read alike, the source gives them in different places. e = 2'-O-(2-methoxyethyl) (MOE); d = 2'-deoxy (DNA)

Key:
[1] = mouse, in vivo, sc, 50 mg/kg
[2] = rat, in vivo, sc, 50 mg/kg
[3] = mouse, in vivo, sc, 50 mg/kg; remark: listed apart in the source
[4] = rat, in vivo, sc, 50 mg/kg; remark: listed apart in the source
[5] = rat, in vivo, sc, 50 mg/kg; remark: listed apart in the source
[6] = mouse, in vivo, sc, 50 mg/kg; remark: listed apart in the source

| Substance | ALT [1] [IU/L] | AST [1] [IU/L] | Bilirubin [1] [mg/dL] | Cholesterol [1] [mg/dL] | ALT [2] [IU/L] | AST [2] [IU/L] | Albumin [2] | Bilirubin [2] [mg/dL] | BUN [3] [mg/dL] | BUN [4] [mg/dL] | Creatinine [4] [mg/dL] | Total urine protein [4] [mg/dL] | Urine protein/creatinine ratio [4] | HCT [5] [%] | Lymphocyte [5] | Neutrophil [5] | Platelets [5] | RBC [5] | WBC [5] | hemoglobin [5] [g/dL] | also measured |
| --- | --- | --- | --- | --- | --- | --- | --- | --- | --- | --- | --- | --- | --- | --- | --- | --- | --- | --- | --- | --- | --- |
| ISIS 416866: MOE gapmer, nucleobases 1275 to 1318 of SEQ ID NO: 1 (Table 8) (antisense CTGGCAGCGGACGGCATTGG; MOE gapmer, wing and gap sizes not given here) | 36 | 120 | 0.29 | 113 | 41 | 78 | 4 | 0.16 | 22 | 22 | 85 | 486 | 6.2 | 44 | 16834 | 1916 | 900 | 7.8 10^6/μL | 20 10^3/μL | 14.0 | HCT [6]: 51%; Lymphocyte [6]: 4621 cells/μL; Neutrophil [6]: 1201 cells/μL; Platelets [6]: 1045 10^3/μL; RBC [6]: 9 10^6/μL; WBC [6]: 6 10^3/μL; hemoglobin [6]: 15 g/dL; monocytes [6]: 211 cells/μL |
| ISIS 416852: MOE gapmer, nucleobases 1275 to 1318 of SEQ ID NO: 1 (Table 8) (antisense TGGTGCACAGTTTCTGGCAG; MOE gapmer, wing and gap sizes not given here) | 49 | 91 | 0.16 | 125 | 49 | 87 | 4 | 0.15 | 21 | 25 | 60 | 189 | 3.0 | 42 | 11956 | 836 | 632 | 7.2 10^6/μL | 13 10^3/μL | 13.4 | HCT [6]: 49%; Lymphocyte [6]: 3646 cells/μL; Neutrophil [6]: 1241 cells/μL; Platelets [6]: 903 10^3/μL; RBC [6]: 9 10^6/μL; WBC [6]: 5 10^3/μL; hemoglobin [6]: 14 g/dL; monocytes [6]: 189 cells/μL |
| ISIS 413482: 5-10-5 MOE gapmer GGACGGCATTGGTGCACAGT (sugars from the 5' end e5 d10 e5, backbone and methylation of C not given here) | 54 | 77 | 0.24 | 138 | 59 | 157 | 4 | 0.14 | 27 | 23 | 34 | 157 | 4.8 | 40 | 11430 | 1125 | 641 | 7.1 10^6/μL | 13 10^3/μL | 13.2 | HCT [6]: 50%; Lymphocyte [6]: 5584 cells/μL; Neutrophil [6]: 1958 cells/μL; Platelets [6]: 818 10^3/μL; RBC [6]: 10 10^6/μL; WBC [6]: 8 10^3/μL; hemoglobin [6]: 15 g/dL; monocytes [6]: 275 cells/μL |
| ISIS 412223: 5-10-5 MOE gapmer ACAGTTTCTGGCAGGCCTCG (sugars from the 5' end e5 d10 e5, backbone and methylation of C not given here) | 60 | 125 | 0.20 | 117 | 85 | 180 | 5 | 0.14 | 28 | 24 | 46 | 224 | 4.6 | 41 | 16990 | 1826 | 567 | 7.2 10^6/μL | 20 10^3/μL | 13.1 | HCT [6]: 48%; Lymphocyte [6]: 4599 cells/μL; Neutrophil [6]: 1756 cells/μL; Platelets [6]: 862 10^3/μL; RBC [6]: 9 10^6/μL; WBC [6]: 7 10^3/μL; hemoglobin [6]: 15 g/dL; monocytes [6]: 200 cells/μL |
| ISIS 416867: MOE gapmer, nucleobases 1275 to 1318 of SEQ ID NO: 1 (Table 8) (antisense ACTGGCAGCGGACGGCATTG; MOE gapmer, wing and gap sizes not given here) | 45 | 82 | 0.21 | 144 | 47 | 126 | 4 | 0.17 | 20 | 22 | 70 | 217 | 3.1 | 45 | 10405 | 3044 | 705 | 7.8 10^6/μL | 14 10^3/μL | 14.0 | HCT [6]: 47%; Lymphocyte [6]: 6078 cells/μL; Neutrophil [6]: 1404 cells/μL; Platelets [6]: 1006 10^3/μL; RBC [6]: 10 10^6/μL; WBC [6]: 8 10^3/μL; hemoglobin [6]: 14 g/dL; monocytes [6]: 188 cells/μL |
| ISIS 416848: MOE gapmer, nucleobases 1275 to 1318 of SEQ ID NO: 1 (Table 8) (antisense CACAGTTTCTGGCAGGCCTC; MOE gapmer, wing and gap sizes not given here) | 153 | 153 | 0.19 | 151 | 89 | 236 | 3 | 0.14 | 23 | 26 | 64 | 231 | 3.9 | 35 | 14316 | 1874 | 384 | 6.0 10^6/μL | 17 10^3/μL | 11.1 | HCT [6]: 47%; Lymphocyte [6]: 5268 cells/μL; Neutrophil [6]: 1264 cells/μL; Platelets [6]: 953 10^3/μL; RBC [6]: 9 10^6/μL; WBC [6]: 7 10^3/μL; hemoglobin [6]: 14 g/dL; monocytes [6]: 180 cells/μL |
